Assay results published in US20160271086A1, “METHODS AND COMPOSITIONS FOR INDUCING REGULATORY T-CELL GENERATION” (SLOAN-KETTERING INSTITUTE FOR CANCER RESEARCH, priority 2013, published 2016).

Tests used:
[1] = test system: Flt3L-elicited DC; test: Foxp3 induction by DC pre-treated with SCFA or TSA for 6 h, washed, co-cultured with naïve CD4+ T cells; type: cell-based, mouse; settings: DC pre-treated 6 h, then agent removed
Description: DC were expanded in vivo by subcutaneous injection of B16 melanoma cells secreting FLT3-ligand into the left hind flank of mice as indicated. Once tumors were visible, spleens from injected animals were dissociated in RPMI 1640 medium containing 1.67 U mL-1 liberase TL (Roche) and 50 μg mL-1 DNAse I (Roche) for 20 min at 37° C. with shaking EDTA was then added at a final concentration of 5 mM to stop digestion and the resulting homogenate was processed for CD11c+ cell isolation using the MACS mouse CD11c (N418) purification kit (Miltenyi Biotec).
In vitro Foxp3 induction assays were performed by co-culturing DC with 5.5×10^4 CD4+CD44loCD62LhiCD25-naïve T cells in the presence of 1 μg ml-1 of CD3 antibody, 1 ng mL-1 TGF-β, and 100 U ml-1 IL-2, in 96-well flat-bottom plates for 4 d. For Foxp3 induction in the presence of butyrate- or TSA-pretreated DC, TGF-β was used at 0.1 ng mL-1 final concentration. In vitro induction assays in the absence of DC were performed by incubating 5.5×10^4 naïve CD4+ T cells with 1 ng mL-1 TGF-β, 100 U ml-1 IL-2, and a 1:1 cell-to-bead ratio of CD3/CD28 T activator Dynabeads (Invitrogen). For in vitro suppression assays, 4×10^4 naïve CD4+ T cells were FACS-sorted from B6 mice and cultured with graded numbers of CD4+Foxp3+ Treg cells FACS-sorted from Foxp3GFP mice treated with antibiotics and with or without butyrate, in the presence of […] irradiated T cell-depleted splenocytes and 1 μg ml-1 CD3 antibody in a 96-well round-bottom plate for 80 h. Proliferation of T cells was assessed by [3H]-thymidine incorporation during the final 8 h of culture.

[2] = test system: dendritic cells; test: Treg induction by dendritic cells treated with soluble or liposome encapsulated TSA; type: cell-based; settings: DC treated 6 hrs with soluble or liposome encapsulated TSA, washed, incubated with naïve CD4+ T cells
Source text: TSA was encapsulated in lipid particles containing mixtures of lipids for release of contents only upon entry into cells. For details see Karve et al. Langmuir 2008, 24, 5679-5688. To monitor incorporation of TSA into liposomes, lipids were dissociated with hydrogenated Triton-X and monitored for increased UV absorption compared to free TSA and ‘empty’ liposomes. >85% of free TSA is incorporated into the lipid particles.
The ability of dendritic cells to induce Treg development in vitro after exposure to lipopsome encapsulated TSA was evaluated. Doubly bead-purified dendritic cells were treated for 6 hrs with soluble or liposome encapsulated TSA then washed and incubated with naïve CD4+ T cells. Pretreatment of DCs with TSA increased the generation of Foxp3+ cells relative to vehicle control (FIG. 11).

[3] = test system: LPS response genes; test: Gene expression in DC (microarray, Relb qPCR); type: cell-based, mouse; settings: 6 h
Description: FIG. 4 depicts HDAC-inhibitory activity of butyrate decreases pro-inflammatory cytokine expression within DC to promote Treg induction: A) Histone acetylation in Flt3L-elicited DC from B6 mice treated with the indicated SCFA (500 μM) or TSA (10 nM) for 6 h followed by acid extraction of histones from isolated nuclei, SDS-PAGE and blotting with antibody for pan-acetylated H3. Total histone H3 served as a loading control; B) Induction of Foxp3 expression upon stimulation of naïve CD4+ T cells by CD3 antibody in the presence of SCFA or TSA, Flt3L-elicited DC and TGF-β; C) RelB gene expression quantified by qPCR in purified Flt3L-elicited DC from B6 mice treated for 6 h with SCFA or TSA, as in (A); and D) RelB gene expression quantified by qPCR in purified Flt3L-elicited DC from B6 mice treated with or without TSA in combination with, or in the absence of, butyrate at the indicated concentrations.
The data are shown as percent of CD4+ cells expressing Foxp3 after 4 days of culture. Data are representative of 2 independent experiments; error bars denote SEM.

[4] = test system: T cells; settings: Wang et al. 2009; Tao et al. 2007; cited from earlier work

With `CC(/C=C/C(=O)NO)=C\[C@@H](C)C(=O)c1ccc(N(C)C)cc1` [TSA, trichostatin A] the “ability of pre-treated DCs to induce Foxp3 expression in naïve CD4+ T cells” value [1] was “potently induced”, the “generation of Foxp3+ cells relative to vehicle control” value [2] was “increased” and the “expression of LPS response genes including 1112, 116, and Relb in DCs” value [3] was “systemic repression”. The “Treg cell generation in vitro by acting on T cells” value [4] was “potentiates”.
